MIC, IC50 and Ratio data for 3 compounds are collected here from ChEMBL document CHEMBL4725357, “Elucidating the Structural Requirement of Uridylpeptide Antibiotics for Antibacterial Activity” (J Med Chem, 2020).

Molecules are shown by their SMILES. Values after ≈ are worked out from the molar mass of the structure shown. Bounds are passed on as bounds.

In series [1] the test system is Pseudomonas aeruginosa. Kind of series: Antibacterial activity against Pseudomonas aeruginosa incubated for 18 hrs by CLSI based broth microdilution method. It is filed as functional. (In general: Broth dilution looks for growth in wells or tubes with falling amounts of substance.)
Series [2] in a line: Inhibition of Staphylococcus aureus MraY using UDPMurNAc-dansylpentapeptide as substrate incubated for 3 hrs by fluorescence method.
The test system of series [3] is Pseudomonas aeruginosa. As to the kind of experiment: Antibacterial activity against Pseudomonas aeruginosa serotype B IID1007 incubated for 18 hrs by CLSI based broth microdilution method. Format: functional.
For series [4], the system named is Pseudomonas aeruginosa. Kind of series: Antibacterial activity against Pseudomonas aeruginosa serotype I IID1010 incubated for 18 hrs by CLSI based broth microdilution method. Format: functional.
For series [5], the system named is Pseudomonas aeruginosa. As to the kind of experiment: Antibacterial activity against Pseudomonas aeruginosa ATCC 27853 incubated for 18 hrs by CLSI based broth microdilution method. Format: functional.
Series [6] has as its system Pseudomonas aeruginosa. As to the kind of experiment: Antibacterial activity against Pseudomonas aeruginosa serotype L IID5141 incubated for 18 hrs by CLSI based broth microdilution method. It is filed as functional.
The subject of series [7] is Pseudomonas aeruginosa. As to the kind of experiment: Antibacterial activity against Pseudomonas aeruginosa isolate 1485 incubated for 18 hrs by CLSI based broth microdilution method. Format: functional.
Series [8] deals with Pseudomonas aeruginosa. As to the kind of experiment: Antibacterial activity against Pseudomonas aeruginosa serotype B IID1002 incubated for 18 hrs by CLSI based broth microdilution method. Format: functional.
The subject of series [9] is Pseudomonas aeruginosa. Kind of series: Antibacterial activity against Pseudomonas aeruginosa serotype K IID1012 incubated for 18 hrs by CLSI based broth microdilution method. It is filed as functional.
Series [10] deals with Pseudomonas aeruginosa. Kind of series: Antibacterial activity against multidrug-resistant Pseudomonas aeruginosa MDRP62 incubated for 18 hrs by CLSI based broth microdilution method. It is filed as functional.
In series [11] the test system is Pseudomonas aeruginosa. As to the kind of experiment: Antibacterial activity against Pseudomonas aeruginosa serotype G IID1020 incubated for 18 hrs by CLSI based broth microdilution method. It is filed as functional.
The subject of series [12] is Pseudomonas aeruginosa. Kind of series: Antibacterial activity against Pseudomonas aeruginosa PAO1 incubated for 18 hrs by CLSI based broth microdilution method. Format: functional.
Series [13] has as its system Pseudomonas aeruginosa. As to the kind of experiment: Antibacterial activity against Pseudomonas aeruginosa serotype D IID1004 incubated for 18 hrs by CLSI based broth microdilution method. It is filed as functional.
In series [14] the test system is Pseudomonas aeruginosa. Kind of series: Antibacterial activity against Pseudomonas aeruginosa isolate 2867 incubated for 18 hrs by CLSI based broth microdilution method. It is filed as functional.
Series [15] is described as follows: Inhibition of Staphylococcus aureus MraY using UDPMurNAc-dansylpentapeptide as substrate incubated for 3 to 4 hrs by fluorescence method.
Series [16] has as its system Pseudomonas aeruginosa. As to the kind of experiment: Antibacterial activity against Pseudomonas aeruginosa serotype B IID1013 incubated for 18 hrs by CLSI based broth microdilution method. It is filed as functional.
Series [17] has as its system Pseudomonas aeruginosa. As to the kind of experiment: Antibacterial activity against Pseudomonas aeruginosa serotype H IID1009 incubated for 18 hrs by CLSI based broth microdilution method. It is filed as functional.
For series [18], the system named is Pseudomonas aeruginosa. Kind of series: Antibacterial activity against Pseudomonas aeruginosa serotype B IID5004 incubated for 18 hrs by CLSI based broth microdilution method. It is filed as functional.
The subject of the next series is HepG2. Kind of series: Cytotoxicity against human HepG2 cells after 24 hrs by CCK-8 assay. It is filed as cell-based. Particulars: HepG2, 24 h.
The subject of series [19] is Pseudomonas aeruginosa. As to the kind of experiment: Antibacterial activity against Pseudomonas aeruginosa serotype J IID1011 incubated for 18 hrs by CLSI based broth microdilution method. It is filed as functional.
Series [20] has as its system Pseudomonas aeruginosa. Kind of series: Antibacterial activity against Pseudomonas aeruginosa serotype M IID5018 incubated for 18 hrs by CLSI based broth microdilution method. Format: functional.
Series [21] has as its system Pseudomonas aeruginosa. As to the kind of experiment: Antibacterial activity against Pseudomonas aeruginosa serotype C IID1021 incubated for 18 hrs by CLSI based broth microdilution method. Format: functional.
Series [22] concerns Pseudomonas aeruginosa. Kind of series: Antibacterial activity against Pseudomonas aeruginosa serotype F IID1006 incubated for 18 hrs by CLSI based broth microdilution method. Format: functional.
For series [23], the system named is Pseudomonas aeruginosa. Kind of series: Antibacterial activity against Pseudomonas aeruginosa isolate 2931 incubated for 18 hrs by CLSI based broth microdilution method. Format: functional.
Series [24] deals with Pseudomonas aeruginosa. As to the kind of experiment: Antibacterial activity against Pseudomonas aeruginosa serotype A IID1001 incubated for 18 hrs by CLSI based broth microdilution method. Format: functional.
Series [25] deals with Pseudomonas aeruginosa. Kind of series: Antibacterial activity against Pseudomonas aeruginosa serotype M IID1015 incubated for 18 hrs by CLSI based broth microdilution method. Format: functional.
Series [26] has as its system Pseudomonas aeruginosa. Kind of series: Antibacterial activity against Pseudomonas aeruginosa isolate 9728b incubated for 18 hrs by CLSI based broth microdilution method. It is filed as functional.
Series [27] concerns Pseudomonas aeruginosa. Kind of series: Antibacterial activity against Pseudomonas aeruginosa isolate 1483 incubated for 18 hrs by CLSI based broth microdilution method. It is filed as functional.
Series [28] concerns Pseudomonas aeruginosa. As to the kind of experiment: Antibacterial activity against Pseudomonas aeruginosa serotype E IID1130 incubated for 18 hrs by CLSI based broth microdilution method. It is filed as functional.
Series [29] can be described thus: Substrate activity at NppA1A2BCD assessed as antibacterial activity against mureidomycin-resistant Pseudomonas aeruginosa PAO1 harboring NppA1A2BCD mutant measured at day 1 post mureidomycin-challenge. It is filed as ADME.
Series [30] can be described thus: Substrate activity at NppA1A2BCD assessed as antibacterial activity against mureidomycin-resistant Pseudomonas aeruginosa PAO1 harboring NppA1A2BCD mutant measured at day 30 post mureidomycin-challenge. Format: ADME.
Series [31] concerns Pseudomonas aeruginosa. As to the kind of experiment: Resistance index, ratio of MIC for Pseudomonas aeruginosa PAO1 incubated overnight to MIC for Pseudomonas aeruginosa PAO1 incubated for 18 hrs. It is filed as functional.
A short description of series [32]: Substrate activity at NppA1A2BCD assessed as antibacterial activity against Pseudomonas aeruginosa PAO1 PW4181. Format: ADME. Particulars: pseudomonas aeruginosa pao1, 720 h; time 30 day.
Series [33] can be described thus: Substrate activity at NppA1A2BCD assessed as antibacterial activity against Pseudomonas aeruginosa PAO1 PW4182. Format: ADME. Particulars: pseudomonas aeruginosa pao1, 720 h; time 30 day.
Series [34] can be described thus: Substrate activity at NppA1A2BCD assessed as antibacterial activity against mureidomycin-resistant Pseudomonas aeruginosa PAO1 harboring NppA1A2BCD mutant measured at day 2 post mureidomycin-challenge. It is filed as ADME.

The term IC50 denotes the concentration that inhibits the measured activity by half. Low readings indicate higher potency, high ones lower potency. With `C[C@@H]([C@H](NC(=O)[C@H](CC[S+](C)[O-])NC(=O)N[C@@H](Cc1cccc(O)c1)C(=O)O)C(=O)N/C=C1\O[C@@H](n2ccc(=O)[nH]c2=O)[C@H](O)[C@@H]1O)N(C)C(=O)[C@@H](N)Cc1cccc(O)c1` (stereo partly drawn), in the series with Pseudomonas aeruginosa [1], the MIC is 32 µg/mL (≈ 36.7 µM). In [2], this compound showed an IC50 of 4.7 nM.
Regarding `C[C@H](N)C(=O)N(C)[C@@H](C)[C@H](NC(=O)[C@H](C)NC(=O)N[C@@H](Cc1c[nH]c2ccccc12)C(=O)O)C(=O)N/C=C1\O[C@@H](n2ccc(=O)[nH]c2=O)[C@H](O)[C@@H]1O`, the MIC against Pseudomonas aeruginosa [3] was greater than 128 µg/mL; against Pseudomonas aeruginosa [4], greater than 128 µg/mL; in the series with Pseudomonas aeruginosa [5] it was 32 µg/mL (≈ 44 µM); against Pseudomonas aeruginosa [6], 32 µg/mL (≈ 44 µM); in the series on Pseudomonas aeruginosa [7], 16 µg/mL (≈ 22 µM); in the series on Pseudomonas aeruginosa [8] it was greater than 128 µg/mL. Further, the MIC with Pseudomonas aeruginosa [9] is 64 µg/mL (≈ 87.9 µM); in the series with Pseudomonas aeruginosa [10] it was greater than 128 µg/mL; in the series with Pseudomonas aeruginosa [11], greater than 128 µg/mL; against Pseudomonas aeruginosa [12], 16 µg/mL (≈ 22 µM); against Pseudomonas aeruginosa [13], greater than 128 µg/mL; in the series with Pseudomonas aeruginosa [14], 32 µg/mL (≈ 44 µM). Moreover, the MIC in the series on Pseudomonas aeruginosa [16] is greater than 128 µg/mL; in the series with Pseudomonas aeruginosa [17], 32 µg/mL (≈ 44 µM); against Pseudomonas aeruginosa [18], 64 µg/mL (≈ 87.9 µM); with Pseudomonas aeruginosa [19], greater than 128 µg/mL; in the series with Pseudomonas aeruginosa [20], greater than 128 µg/mL; in the series on Pseudomonas aeruginosa [21] it was 16 µg/mL (≈ 22 µM). Further, the MIC in the series on Pseudomonas aeruginosa [22], in the series with Pseudomonas aeruginosa [23], with Pseudomonas aeruginosa [24], in the series on Pseudomonas aeruginosa [25], in the series with Pseudomonas aeruginosa [26] and against Pseudomonas aeruginosa [27] was greater than 128 µg/mL each time. For the same compound, in the series on Pseudomonas aeruginosa [28], the MIC was greater than 128 µg/mL. For the same compound, the IC50 in series [2] is 44 nM; in series [15] it was 42 nM; in the series with HepG2, greater than 100000 nM.
For `CSCC[C@H](NC(=O)N[C@@H](Cc1cccc(O)c1)C(=O)O)C(=O)N[C@H](C(=O)N/C=C1\O[C@@H](n2ccc(=O)[nH]c2=O)[C@H](O)[C@@H]1O)[C@H](C)N(C)C(=O)[C@@H](N)Cc1cccc(O)c1`, the MIC against Pseudomonas aeruginosa [3] turned out to be 32 µg/mL (≈ 37.3 µM); against Pseudomonas aeruginosa [4], 32 µg/mL (≈ 37.3 µM); against Pseudomonas aeruginosa [5], 4 µg/mL (≈ 4.67 µM); in the series with Pseudomonas aeruginosa [6], 4 µg/mL (≈ 4.67 µM); in the series on Pseudomonas aeruginosa [7], 4 µg/mL (≈ 4.67 µM); against Pseudomonas aeruginosa [8], 16 µg/mL (≈ 18.7 µM). The MIC in the series with Pseudomonas aeruginosa [9] came to 16 µg/mL (≈ 18.7 µM); in the series on Pseudomonas aeruginosa [10], 16 µg/mL (≈ 18.7 µM); in the series on Pseudomonas aeruginosa [11], 8 µg/mL (≈ 9.34 µM); in the series on Pseudomonas aeruginosa [12], 4 µg/mL (≈ 4.67 µM); against Pseudomonas aeruginosa [13], 8 µg/mL (≈ 9.34 µM); against Pseudomonas aeruginosa [14], 8 µg/mL (≈ 9.34 µM). The MIC in the series with Pseudomonas aeruginosa [16] was greater than 128 µg/mL; in series [29], greater than 64 µg/mL; in series [30] it was greater than 64 µg/mL; in the series with Pseudomonas aeruginosa [17], 8 µg/mL (≈ 9.34 µM); against Pseudomonas aeruginosa [18], 8 µg/mL (≈ 9.34 µM); with Pseudomonas aeruginosa [19] it was 16 µg/mL (≈ 18.7 µM). Also, the MIC was greater than 128 µg/mL in the series on Pseudomonas aeruginosa [20]; 8 µg/mL (≈ 9.34 µM) in the series on Pseudomonas aeruginosa [21]; greater than 128 µg/mL in [32]; greater than 128 µg/mL in the series with Pseudomonas aeruginosa [22]; 16 µg/mL (≈ 18.7 µM) with Pseudomonas aeruginosa [23]; greater than 128 µg/mL in [33]. Further, the MIC is 64 µg/mL (≈ 74.7 µM) with Pseudomonas aeruginosa [24]; 16 µg/mL (≈ 18.7 µM) in the series on Pseudomonas aeruginosa [25]; 32 µg/mL (≈ 37.3 µM) with Pseudomonas aeruginosa [26]; 8 µg/mL (≈ 9.34 µM) against Pseudomonas aeruginosa [27]; greater than 64 µg/mL in series [34]; 16 µg/mL (≈ 18.7 µM) against Pseudomonas aeruginosa [28]. The values for the IC50 (in series [2]; in the series on HepG2) were 1.3 nM and greater than 100000 nM, respectively. The Ratio in the series with Pseudomonas aeruginosa [31] was determined as 8.
